Measured values from the NIST ThermoML archive (doi:10.1021/je0501991).
Numbers after ± are expanded uncertainties.

What was measured:
[1] = xn = mol fraction of the nth substance listed; conditions: 308.15 K, 101.33 kPa, Liquid
[2] = molar heat capacity at constant pressure; xn = mol fraction of the nth substance listed; conditions: Liquid
[3] = refractive index (Na D-line) (dimensionless); xn = mol fraction of the nth substance listed; conditions: 308.15 K, 101.33 kPa, Liquid, Standard Abbe refractometry
[4] = excess molar enthalpy (molar enthalpy of mixing); xn = mol fraction of the nth substance listed; conditions: 308.15 K, 101.33 kPa, Liquid

OCCCc1ccccc1 [3-phenyl-1-propanol] + C[S+](C)[O-]
Conditions | excess molar enthalpy [kcal/mol] | mass density [kg/m3] | refractive index | viscosity [mPa·s]
[1], x2 = 0.0936 | – | 996.28 ± 0.49 | – | 8.592 ± 0.14
[1], x2 = 0.1499 | – | 999.45 ± 0.47 | – | 7.792 ± 0.12
[1], x2 = 0.277 | – | 1007.07 ± 0.42 | – | 6.19 ± 0.097
[1], x2 = 0.3915 | – | 1014.73 ± 0.39 | – | 5.032 ± 0.079
[1], x2 = 0.4564 | – | 1019.55 ± 0.37 | – | 4.488 ± 0.07
[1], x2 = 0.578 | – | 1029.68 ± 0.34 | – | 3.629 ± 0.056
[1], x2 = 0.6526 | – | 1036.85 ± 0.32 | – | 3.18 ± 0.048
[1], x2 = 0.7233 | – | 1044.45 ± 0.32 | – | 2.801 ± 0.042
[1], x2 = 0.7879 | – | 1052.21 ± 0.31 | – | 2.487 ± 0.038
[1], x2 = 0.8512 | – | 1060.69 ± 0.31 | – | 2.208 ± 0.033
[1], x2 = 0.9027 | – | 1068.4 ± 0.32 | – | 1.993 ± 0.03
[1], x2 = 0.9543 | – | 1076.93 ± 0.33 | – | 1.801 ± 0.027
[3], x2 = 0.0936 | – | – | 1.5188 ± 0.0007 | –
[3], x2 = 0.1499 | – | – | 1.5172 ± 0.0007 | –
[3], x2 = 0.277 | – | – | 1.5132 ± 0.0007 | –
[3], x2 = 0.3915 | – | – | 1.509 ± 0.0007 | –
[3], x2 = 0.4564 | – | – | 1.5063 ± 0.0007 | –
[3], x2 = 0.578 | – | – | 1.5008 ± 0.0007 | –
[3], x2 = 0.6526 | – | – | 1.4969 ± 0.0007 | –
[3], x2 = 0.7233 | – | – | 1.4931 ± 0.0007 | –
[3], x2 = 0.7879 | – | – | 1.489 ± 0.0007 | –
[3], x2 = 0.8512 | – | – | 1.4847 ± 0.0007 | –
[3], x2 = 0.9027 | – | – | 1.4811 ± 0.0007 | –
[3], x2 = 0.9543 | – | – | 1.4771 ± 0.0007 | –
[4], x2 = 0.0737 | -0.0543 ± 0.0012 | – | – | –
[4], x2 = 0.1373 | -0.0822 ± 0.00167 | – | – | –
[4], x2 = 0.1927 | -0.0951 ± 0.00191 | – | – | –
[4], x2 = 0.2414 | -0.103 ± 0.00215 | – | – | –
[4], x2 = 0.3232 | -0.101 ± 0.00215 | – | – | –
[4], x2 = 0.389 | -0.0946 ± 0.00191 | – | – | –
[4], x2 = 0.4885 | -0.0796 ± 0.00167 | – | – | –
[4], x2 = 0.56 | -0.0645 ± 0.00143 | – | – | –
[4], x2 = 0.6563 | -0.0423 ± 0.000956 | – | – | –
[4], x2 = 0.7413 | -0.0215 ± 0.000717 | – | – | –
[4], x2 = 0.7925 | -0.0115 ± 0.000478 | – | – | –
[4], x2 = 0.8514 | -0.00311 ± 0.000478 | – | – | –
[4], x2 = 0.8843 | 0.00167 ± 0.000478 | – | – | –
[4], x2 = 0.9162 | 0.00335 ± 0.000478 | – | – | –
[4], x2 = 0.9386 | 0.0043 ± 0.000478 | – | – | –
[4], x2 = 0.9582 | 0.00406 ± 0.000478 | – | – | –
[4], x2 = 0.9787 | 0.00263 ± 0.000478 | – | – | –

molar heat capacity at constant pressure [J/K/mol], [2], 101 kPa
Conditions | 298.15 K | 308.15 K | 318.15 K
x2 = 0 | 276.3 ± 22 | 284.1 ± 23 | 291.8 ± 23
x2 = 0.0905 | 259.9 ± 21 | 265.7 ± 21 | 273 ± 22
x2 = 0.1204 | 250.3 ± 20 | 256 ± 20 | 262.8 ± 21
x2 = 0.1712 | 243.4 ± 20 | 249.7 ± 20 | 256.2 ± 20
x2 = 0.3375 | 211.1 ± 17 | 215.5 ± 17 | 220 ± 18
x2 = 0.452 | 196.9 ± 16 | 200 ± 16 | 203.5 ± 16
x2 = 0.5571 | 185.1 ± 15 | 187.5 ± 15 | 190.7 ± 15
x2 = 0.6101 | 185.8 ± 15 | 188.7 ± 15 | 191.4 ± 15
x2 = 0.6567 | 177 ± 14 | 178.3 ± 14 | 180.9 ± 14
x2 = 0.7396 | 165.6 ± 13 | 167.2 ± 13 | 170 ± 14
x2 = 0.806 | 162.2 ± 13 | 163.9 ± 13 | 165.4 ± 13
x2 = 0.8718 | 159.2 ± 13 | 160.5 ± 13 | 161.9 ± 13
x2 = 0.9487 | 148.5 ± 12 | 149.3 ± 12 | 151.3 ± 12

OCc1ccccc1 [benzenemethanol] + C[S+](C)[O-]
Conditions | excess molar enthalpy [kcal/mol] | mass density [kg/m3] | refractive index | viscosity [mPa·s]
[1], x2 = 0.0641 | – | 1037.17 ± 0.26 | – | 3.957 ± 0.06
[1], x2 = 0.1255 | – | 1040.32 ± 0.27 | – | 3.787 ± 0.057
[1], x2 = 0.2283 | – | 1045.4 ± 0.27 | – | 3.49 ± 0.053
[1], x2 = 0.3275 | – | 1050.05 ± 0.28 | – | 3.201 ± 0.048
[1], x2 = 0.4152 | – | 1054.07 ± 0.29 | – | 2.949 ± 0.044
[1], x2 = 0.5117 | – | 1058.52 ± 0.3 | – | 2.686 ± 0.04
[1], x2 = 0.5942 | – | 1062.41 ± 0.3 | – | 2.477 ± 0.037
[1], x2 = 0.6646 | – | 1065.87 ± 0.31 | – | 2.306 ± 0.035
[1], x2 = 0.7406 | – | 1069.8 ± 0.31 | – | 2.134 ± 0.032
[1], x2 = 0.8125 | – | 1073.74 ± 0.32 | – | 1.988 ± 0.03
[1], x2 = 0.8745 | – | 1077.57 ± 0.33 | – | 1.858 ± 0.028
[1], x2 = 0.9388 | – | 1081.3 ± 0.33 | – | 1.748 ± 0.026
[3], x2 = 0.0641 | – | – | 1.5328 ± 0.0007 | –
[3], x2 = 0.1255 | – | – | 1.5297 ± 0.0007 | –
[3], x2 = 0.2283 | – | – | 1.5252 ± 0.0007 | –
[3], x2 = 0.3275 | – | – | 1.5204 ± 0.0007 | –
[3], x2 = 0.4152 | – | – | 1.5157 ± 0.0007 | –
[3], x2 = 0.5117 | – | – | 1.5099 ± 0.0007 | –
[3], x2 = 0.5942 | – | – | 1.5048 ± 0.0007 | –
[3], x2 = 0.6646 | – | – | 1.4998 ± 0.0007 | –
[3], x2 = 0.7406 | – | – | 1.4946 ± 0.0007 | –
[3], x2 = 0.8125 | – | – | 1.4891 ± 0.0007 | –
[3], x2 = 0.8745 | – | – | 1.4838 ± 0.0007 | –
[3], x2 = 0.9388 | – | – | 1.4785 ± 0.0007 | –
[4], x2 = 0.0571 | -0.114 ± 0.00215 | – | – | –
[4], x2 = 0.108 | -0.194 ± 0.00359 | – | – | –
[4], x2 = 0.1537 | -0.249 ± 0.00454 | – | – | –
[4], x2 = 0.195 | -0.291 ± 0.00526 | – | – | –
[4], x2 = 0.2666 | -0.332 ± 0.00598 | – | – | –
[4], x2 = 0.3264 | -0.358 ± 0.00645 | – | – | –
[4], x2 = 0.4209 | -0.358 ± 0.00645 | – | – | –
[4], x2 = 0.492 | -0.34 ± 0.00621 | – | – | –
[4], x2 = 0.5924 | -0.304 ± 0.0055 | – | – | –
[4], x2 = 0.6856 | -0.247 ± 0.00454 | – | – | –
[4], x2 = 0.744 | -0.201 ± 0.00382 | – | – | –
[4], x2 = 0.8135 | -0.147 ± 0.00287 | – | – | –
[4], x2 = 0.8532 | -0.118 ± 0.00239 | – | – | –
[4], x2 = 0.8971 | -0.0825 ± 0.00167 | – | – | –
[4], x2 = 0.9208 | -0.0614 ± 0.00143 | – | – | –
[4], x2 = 0.9457 | -0.0392 ± 0.000956 | – | – | –
[4], x2 = 0.9721 | -0.021 ± 0.000717 | – | – | –

molar heat capacity at constant pressure [J/K/mol], [2], 101.33 kPa
Conditions | 298.15 K | 308.15 K | 318.15 K
x2 = 0 | 200.4 ± 16 | 203.9 ± 16 | 207.2 ± 17
x2 = 0.08706 | 196.4 ± 16 | 201.5 ± 16 | 206.4 ± 16
x2 = 0.1439 | 189.3 ± 15 | 193.7 ± 16 | 198.6 ± 16
x2 = 0.2708 | 168.3 ± 14 | 172.9 ± 14 | 177 ± 14
x2 = 0.3817 | 167 ± 13 | 170.3 ± 14 | 174.1 ± 14
x2 = 0.4964 | 162.3 ± 13 | 164.4 ± 13 | 166.7 ± 13
x2 = 0.5422 | 160.1 ± 13 | 162.4 ± 13 | 164.9 ± 13
x2 = 0.5966 | 159.3 ± 13 | 161.5 ± 13 | 163.6 ± 13
x2 = 0.6863 | 146.6 ± 12 | 149.1 ± 12 | 150.8 ± 12
x2 = 0.7711 | 146.9 ± 12 | 148.1 ± 12 | 149.8 ± 12
x2 = 0.8577 | 149.7 ± 12 | 151.2 ± 12 | 152.5 ± 12
x2 = 0.9237 | 149 ± 12 | 150.2 ± 12 | 151.4 ± 12
x2 = 0.9508 | 146.4 ± 12 | 147.6 ± 12 | 148.8 ± 12
